Test results as given in ChEMBL document CHEMBL1140936, “Topological polar surface area defines substrate transport by multidrug resistance associated protein 1 (MRP1/ABCC1)” (J Med Chem, 2009).

Tests used:
[1] = target: T1, Multidrug resistance-associated protein 1 (Homo sapiens, UniProt P33527); experiment: Activity of MRP1
[2] = target: T1, Multidrug resistance-associated protein 1; experiment: Activity at MRP1 in human HeLa T5 cells assessed as ATP-dependent drug transport at 50 nM measured per mg of protein; type: cell-based; settings: 0.05 µM

T1 sequence (P33527 whole entry): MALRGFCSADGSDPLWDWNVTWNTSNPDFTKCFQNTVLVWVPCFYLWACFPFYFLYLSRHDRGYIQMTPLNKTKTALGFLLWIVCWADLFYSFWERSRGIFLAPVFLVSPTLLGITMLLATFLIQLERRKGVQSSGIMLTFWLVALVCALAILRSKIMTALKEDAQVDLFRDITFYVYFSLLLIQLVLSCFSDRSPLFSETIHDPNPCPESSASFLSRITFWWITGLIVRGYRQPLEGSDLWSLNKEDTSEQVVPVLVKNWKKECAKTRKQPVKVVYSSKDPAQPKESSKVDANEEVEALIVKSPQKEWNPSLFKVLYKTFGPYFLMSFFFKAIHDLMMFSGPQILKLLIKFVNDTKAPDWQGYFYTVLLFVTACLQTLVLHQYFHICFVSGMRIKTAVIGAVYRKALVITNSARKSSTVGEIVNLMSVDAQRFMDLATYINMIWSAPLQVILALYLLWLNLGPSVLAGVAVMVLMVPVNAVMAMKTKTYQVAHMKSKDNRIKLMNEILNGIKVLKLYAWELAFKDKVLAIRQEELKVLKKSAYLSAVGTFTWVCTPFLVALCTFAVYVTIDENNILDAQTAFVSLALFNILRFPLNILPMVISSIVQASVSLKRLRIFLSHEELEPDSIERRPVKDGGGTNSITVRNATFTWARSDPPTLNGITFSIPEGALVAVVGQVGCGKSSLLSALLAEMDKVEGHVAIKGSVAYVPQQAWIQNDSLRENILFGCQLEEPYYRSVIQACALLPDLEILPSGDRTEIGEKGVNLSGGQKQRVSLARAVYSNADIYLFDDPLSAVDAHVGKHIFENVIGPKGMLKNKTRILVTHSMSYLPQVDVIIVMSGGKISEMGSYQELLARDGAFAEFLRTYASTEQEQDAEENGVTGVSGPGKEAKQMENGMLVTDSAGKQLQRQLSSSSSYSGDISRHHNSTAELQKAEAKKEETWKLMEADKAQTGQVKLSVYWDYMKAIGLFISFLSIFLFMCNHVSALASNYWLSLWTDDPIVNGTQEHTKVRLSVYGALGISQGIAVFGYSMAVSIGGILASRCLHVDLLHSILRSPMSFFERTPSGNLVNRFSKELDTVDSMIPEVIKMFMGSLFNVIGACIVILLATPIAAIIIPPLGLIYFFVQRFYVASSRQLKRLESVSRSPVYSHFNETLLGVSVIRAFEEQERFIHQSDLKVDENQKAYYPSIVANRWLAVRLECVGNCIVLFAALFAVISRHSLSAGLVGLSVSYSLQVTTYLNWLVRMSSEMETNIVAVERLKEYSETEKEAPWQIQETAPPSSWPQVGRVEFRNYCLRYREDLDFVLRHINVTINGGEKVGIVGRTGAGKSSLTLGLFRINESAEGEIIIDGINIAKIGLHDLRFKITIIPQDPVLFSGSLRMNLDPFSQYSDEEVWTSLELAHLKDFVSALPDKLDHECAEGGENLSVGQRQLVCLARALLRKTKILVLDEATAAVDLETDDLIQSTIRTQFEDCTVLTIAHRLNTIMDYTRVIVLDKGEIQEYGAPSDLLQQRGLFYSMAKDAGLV

| SMILES | Km [1] | Activity [2] |
| --- | --- | --- |
| Cc1ccc(N(CC(=O)O)CC(=O)O)c(OCCOc2cc(-c3c4cc(Cl)c(=O)cc-4oc4cc(O)c(Cl)cc34)ccc2N(CC(=O)O)CC(=O)O)c1 | 12 µM | – |
| CCCCC/C=C\C\C=C/C=C/C=C/[C@@H](SC[C@H](N)C(=O)O)[C@@H](O)CCCC(=O)O [LEUKOTRIEN E4] | – | 8 pmol/min |
| CCCCC/C=C\C\C=C/C=C/C=C/[C@@H](SC[C@H](N)C(=O)NCC(=O)O)[C@@H](O)CCCC(=O)O [LEUKOTRIENE D4] | – | 15 pmol/min |
